IC50 data for six molecules are collected here from US8163781B2, “Bi-aryl aminotetralines” (Hoffman-La Roche Inc., priority 2008, dated 2012).

In general, IC50 refers to the concentration at which inhibition is half-maximal. A high value points to lower potency.

The target in the experiment is T1, human CRTH2 (Homo sapiens, UniProt Q9Y5Y4).
T1 construct: expressed in transfected cells
T1 sequence (Q9Y5Y4 1-395): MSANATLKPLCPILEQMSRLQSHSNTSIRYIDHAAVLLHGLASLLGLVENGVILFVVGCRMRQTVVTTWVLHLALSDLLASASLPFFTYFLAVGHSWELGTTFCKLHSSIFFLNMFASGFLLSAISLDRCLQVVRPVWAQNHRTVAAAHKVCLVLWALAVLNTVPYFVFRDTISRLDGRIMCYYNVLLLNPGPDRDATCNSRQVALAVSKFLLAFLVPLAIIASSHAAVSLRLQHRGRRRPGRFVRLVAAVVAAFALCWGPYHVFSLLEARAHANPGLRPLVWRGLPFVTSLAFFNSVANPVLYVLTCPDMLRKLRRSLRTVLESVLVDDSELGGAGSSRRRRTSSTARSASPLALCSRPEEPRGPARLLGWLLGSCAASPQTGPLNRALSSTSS
The experiment in a line: Human CRTH2 Receptor Binding Assay. The note with it: whole cell binding, CHO-K1 cells expressing human CRTH2, 20 nM [3H]ramatroban as competing radioligand. An excerpt:
A whole cell receptor binding assay using [^3H]ramatroban as the competing radioactive ligand was employed to evaluate the compound binding activity to human CRTH2. The radioactive ligand [^3H]ramatroban was synthesized according to Sugimoto et. al. (Eur. J. Pharmacol. 524, 30-37, 2005) to a specific activity of 42 Ci/mmol.
A cell line stably expressing human CRTH2 was established by transfecting CHO-K1 cells with two mammalian expression vectors that harbored human CRTH2 and G-alpha16 cDNAs, respectively, using FuGene® 6 transfection reagent (from Roche). Stable clones expressing CRTH2 were selected by staining each clone with BM16 (BD Pharmingen™ from BD Biosciences, a division of Becton, Dickinson and Company), which is a rat monoclonal antibody to human CRTH2. The cells were maintained as monolayer cultures in Ham's F-12 medium containing 10% fetal bovine serum, 100 units/mL penicillin, 100 μg/mL streptomycin, 2 mM glutamine, 0.5 mg/mL G418 (geneticin) for CRTH2, and 0.2 mg/mL hygromycin-B (for G-alpha 16). For whole cell receptor binding assay, the monolayer cells were rinsed once with PBS (phosphate buffered saline), dissociated using ethylenediaminetetraacetate (Versene™ EDTA from the Lonza Inc.), and suspended in PBS containing 10 mM MgCl2 and 0.06% BSA (bovine serum albumin) at 1.5×10^6 cells/mL.
The binding reactions (0.2 mL) were performed in 96-well plates at room temperature in PBS containing 1.5×10^5 cells, 10 mM MgCl2, 0.06% BSA, 20 nM [^3H]ramatroban, and test compound at various concentrations. After 1 hour of binding reactions, the cells were harvested on GF™/B filter microplates (microtiter plates with embedded glass fiber from PerkinElmer, Inc.) and washed 5 times with PBS using a Filtermate™ Harvester (a cell harvester that harvests and washes cells from microplates from PerkinElmer, Inc.). The radioactivities bound to the cells were determined using a microplate scintillation counter (TopCount® NXT, from PerkinElmer, Inc.) after adding 50 μL of Microscint™ 20 scintillation fluid (from PerkinElmer, Inc.) to each well of the filter plates. The radioactivity from non-specific binding was determined by replacing compound with 10 μM of 15(R)-15-methyl PGD2 (from Cayman Chemical Company) in the reaction mixtures. The radioactivity bound to the cells in the absence of compound (total binding) was determined by replacing compound with 0.25% of DMSO (dimethyl sulfoxide) in the reaction mixture. Specific binding data were obtained by subtracting the radioactivity of non-specific binding from each binding data.
The IC50 value is defined as the concentration of the tested compound that is required for 50% inhibition of total specific binding. In order to calculate the IC50 value, the percent inhibition data were determined for 7 concentrations for each compound. The percent inhibition for a compound at each concentration was calculated according to the following formula, [1-(specific binding in the presence of compound)/(total specific binding)]×100. The IC50 value was then obtained by fitting the percent inhibition data to a sigmoidal dose-response (4 parameter logistic) model in the XLfit® software Excel add-in program [from ID Business Solutions Ltd., model 205, where F(x)=(A+(B−A)/(1+((C/x)^D)))].
The molecule `O=C(O)COc1cccc2c1CCC[C@H]2NS(=O)(=O)c1ccc(-c2ccc(O)cc2)cc1` [Example 3-23, [(R)-5-(4′-Hydroxy-biphenyl-4-sulfonylamino)-5,6,7,8-tetrahydro-naphthalen-1-yloxy]-acetic acid] registered a half-maximal inhibitory concentration (IC50) of 124 nM. For the molecule `O=C(O)COc1cccc2c1CCCC2NS(=O)(=O)c1ccc(Oc2ccccc2)nc1` (stereo not drawn) [Example 1-6, [5-(6-Phenoxy-pyridine-3-sulfonylamino)-5,6,7,8-tetrahydro-naphthalen-1-yloxy]-acetic acid], the IC50 is 188 nM.

Turning to `Cc1cc(-c2ccc(S(=O)(=O)N[C@@H]3CCCc4c(OCC(=O)O)cccc43)cc2)cc(C(C)(C)C)c1` [Example 3-45, [(R)-5-(3′-tert-Butyl-5′-methyl-biphenyl-4-sulfonylamino)-5,6,7,8-tetrahydro-naphthalen-1-yloxy]-acetic acid], the IC50 amounted to 5.9 nM.

As for `COc1ccc(-c2ccc(S(=O)(=O)N[C@@H]3CCCc4c(OCC(=O)O)cccc43)cc2)cc1` [Example 1-8, [(R)-5-(4′-Methoxy-biphenyl-4-sulfonylamino)-5,6,7,8-tetrahydro-naphthalen-1-yloxy]-acetic acid], the half-maximal inhibitory concentration (IC50) turned out to be 65.9 nM. In turn, `Cc1ccc(-c2ccc(S(=O)(=O)N[C@@H]3CCCc4c(OCC(=O)O)cccc43)cc2C)cc1` [Example 3-34, [(R)-5-(2,4′-Dimethyl-biphenyl-4-sulfonylamino)-5,6,7,8-tetrahydro-naphthalen-1-yloxy]-acetic acid] registered a half-maximal inhibitory concentration (IC50) of 157 nM. For `O=C(O)COc1cccc2c1CCCC2NS(=O)(=O)c1ccc(-c2cc(F)ccn2)cc1` (stereo not drawn) [Example 3-1, {5-[4-(4-Fluoro-pyridin-2-yl)-benzenesulfonylamino]-5,6,7,8-tetrahydro-naphthalen-1-yloxy}-acetic acid], the half-inhibitory concentration (IC50) amounted to 55.1 nM.
